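GI50 = concentration required for 50% inhibition of growth. TGI denotes the concentration required for complete inhibition of growth.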
How the values were obtained:
Assay in all cases: NCI-60 cell line screen, 384-well format
A549 NSCLC = test system: A549 NSCLC
DU-145 prostate = test system: DU-145 prostate
HCC-2998 colon = test system: HCC-2998 colon
HOP-92 NSCLC = test system: HOP-92 NSCLC
KM12 colon = test system: KM12 colon
MCF7 breast = test system: MCF7 breast
MOLT-4 leukemia = test system: MOLT-4 leukemia
PC-3 prostate = test system: PC-3 prostate
SK-MEL-5 melanoma = test system: SK-MEL-5 melanoma
SR leukemia = test system: SR leukemia
TK-10 renal = test system: TK-10 renal
UACC-62 melanoma = test system: UACC-62 melanoma
UO-31 renal = test system: UO-31 renal

For `CNC(=O)c1ccccc1Nc1nc(Nc2ccc3c(c2OC)CCC[C@H](N2CCN(CCO)CC2)C3)ncc1Cl`, which GI50 (A549 NSCLC) is on record?
Its GI50 is 1080 nM.

And the TGI (A549 NSCLC)?
Its TGI is 2330 nM.

And the GI50 (DU-145 prostate)?
The GI50 was 728 nM.

What about the TGI (DU-145 prostate) of the same compound?
The TGI was 2600 nM.

And the GI50 (HCC-2998 colon)?
The GI50 was 1210 nM.

And the TGI (HCC-2998 colon)?
The TGI was 2550 nM.

What about the GI50 (HOP-92 NSCLC) of the same compound?
The GI50 was 985 nM.

And the TGI (HOP-92 NSCLC)?
The TGI was 2250 nM.

And the GI50 (KM12 colon)?
Its GI50 is 955 nM.

What about the TGI (KM12 colon) of the same compound?
The TGI was 2630 nM.

And the GI50 (MCF7 breast)?
The GI50 was 244 nM.

And the TGI (MCF7 breast)?
Its TGI is 1520 nM.

And the GI50 (MOLT-4 leukemia)?
The GI50 was 1280 nM.

And the TGI (MOLT-4 leukemia)?
The TGI was 2560 nM.

And the GI50 (PC-3 prostate)?
The GI50 was 2020 nM.

And the TGI (PC-3 prostate)?
The TGI was 5060 nM.

What about the GI50 (SK-MEL-5 melanoma) of the same compound?
The GI50 was 879 nM.

What about the TGI (SK-MEL-5 melanoma) of the same compound?
Its TGI is 2150 nM.

What about the GI50 (SR leukemia) of the same compound?
Its GI50 is 18.6 nM.

And the TGI (SR leukemia)?
Its TGI is 34.7 nM.

What about the GI50 (TK-10 renal) of the same compound?
The GI50 was 783 nM.

What about the TGI (TK-10 renal) of the same compound?
The TGI was 2480 nM.

What about the GI50 (UACC-62 melanoma) of the same compound?
Its GI50 is 673 nM.

What about the TGI (UACC-62 melanoma) of the same compound?
Its TGI is 1930 nM.

And the GI50 (UO-31 renal)?
The GI50 was 1080 nM.

What about the TGI (UO-31 renal) of the same compound?
The TGI was 2290 nM.

From PubChem BioAssay (NCI)
